Where a name gives a salt, the structure may show the parent alone.
Tests used:
[1] = test system: substance P-induced contraction of the isolated guinea-pig ileum; assay: Inhibitory effect on substance P-induced contraction of the isolated guinea-pig ileum; assay type: cell-based; details: Cavia porcellus, 5 min, substance P 0.01 μM, 5 min incubation, 30° C.
Method: (§1) Inhibitory effect on substance P and histamine-induced contraction of the isolated guinea-pig ileum. Test compounds were dissolved and diluted in 100% dimethylsulfoxide (DMSO). Substance P (SP, Peninsula Laboratories or Peptide Institute) and histamine dihydrochloride (Wako Pure Chemicals) were dissolved and diluted in distilled water. […] Male Hartley guinea-pigs (300-400 g) were killed by a blow to the head. The ileum was removed and the ileal strips (15-20 mm) were suspended under 0.5 g tension in a 20 ml organ bath containing a modified Tyrode solution maintained at 30° C. and aerated with 95% O2 +5% CO2. Responses were recorded isotonically. Tissues were equilibrated for 15 min, and then the constant responses to histamine (1 μM) were obtained. Then substance P (0.01 μM) or histamine (0.1 μM)-induced contraction was obtained after 5 min incubation with or without the test compounds. Contractile responses to substance P or histamine with the test compound were expressed as a percentage of those without the test compound. IC50 was the concentration of the test compound required to prevent 50% of the contractile response elicited by substance P or histamine. Compound Nos. of the tested compounds correspond to the numbers of Preparation Examples.

[2] = test system: histamine-induced contraction of the isolated guinea-pig ileum; assay: Inhibitory effect on histamine-induced contraction of the isolated guinea-pig ileum; assay type: cell-based; details: Cavia porcellus, 5 min, histamine 0.1 μM, 5 min incubation, 30° C.
Method: as §1

**Q.** `CN(CCN(C)c1nc2ccccc2n1Cc1ccc(F)cc1)C(=O)NCc1cc(C(F)(F)F)cc(C(F)(F)F)c1` [Compound 2, N-methyl-N-(1-(4-fluorobenzyl)benzimidazol-2-yl)-N'-methyl-N'-(3,5-bis(trifluoromethyl)benzylaminocarbonyl)-1,2-ethylenediamine hydrochloride] was tested. Which IC50 [1] did it give?
**A.** 2800 nM

**Q.** What about the IC50 [2] of the same compound?
**A.** 1100 nM

**Q.** Which IC50 [1] does the source give for `CN(CCCN(C)c1nc2ccccc2n1Cc1ccc(F)cc1)C(=O)NCc1cc(C(F)(F)F)cc(C(F)(F)F)c1` [Compound 1, N-methyl-N-(1-(4-fluorobenzyl)benzimidazol-2-yl)-N'-methyl-N'-(3,5-bis(trifluoromethyl)benzylaminocarbonyl)-1,3-propylenediamine hydrochloride] here?
**A.** 590 nM

**Q.** And the IC50 [2]?
**A.** 290 nM

**Q.** For `CN(CCN(C)C(=O)NCc1cc(C(F)(F)F)cc(C(F)(F)F)c1)Cc1nc2ccccc2n1Cc1ccc(F)cc1` [Compound 4, N-methyl-N-(1-(4-fluorobenzyl)benzimidazol-2-yl)methyl-N'-methyl-N'-(3,5-bis(trifluoromethyl)benzylaminocarbonyl)-1,2-ethylenediamine hydrochloride], which IC50 [1] is on record?
**A.** 950 nM

**Q.** And the IC50 [2]?
**A.** 100 nM

**Q.** How did the IC50 [1] turn out when `COc1ccccc1CNC(=O)N(C)CCCN(C)c1nc2ccccc2n1Cc1ccc(F)cc1` [Compound 5] was run?
**A.** 3000 nM

**Q.** And the IC50 [2]?
**A.** 29 nM

**Q.** Which results are given for `COc1cc(CNC(=O)N(C)CCCN(C)c2nc3ccccc3n2Cc2ccc(F)cc2)cc(OC)c1OC` [Compound 7]?
**A.** IC50 [1]: 4000 nM; IC50 [2]: 100 nM

**Q.** What does the source list for `CN(CCCN(C)c1nc2ccccc2n1Cc1ccc(F)cc1)C(=O)NCc1ccc(F)cc1` [Compound 9]?
**A.** IC50 [1]: 2700 nM; IC50 [2]: 36 nM

**Q.** With `CN(CCCN(C)c1nc2ccccc2n1Cc1ccc(F)cc1)C(=O)NCc1cc(Cl)cc(Cl)c1` [Compound 11] as the compound, how does the IC50 [1] read?
**A.** 1500 nM

**Q.** What about the IC50 [2] of the same compound?
**A.** 200 nM

**Q.** Which IC50 [1] does the source give for `COc1ccc(CNC(=O)N(C)CCCN(C)c2nc3ccccc3n2Cc2ccc(F)cc2)cc1` [Compound 12] here?
**A.** 4100 nM

**Q.** What about the IC50 [2] of the same compound?
**A.** 44 nM

**Q.** What does the source list for `Cc1ccc(CNC(=O)N(C)CCCN(C)c2nc3ccccc3n2Cc2ccc(F)cc2)cc1` [Compound 13]?
**A.** IC50 [1]: 2800 nM; IC50 [2]: 28 nM

**Q.** Which IC50 [1] does the source give for `CN(CCCN(C)C(=O)NCc1cc(C(F)(F)F)cc(C(F)(F)F)c1)Cc1nc2ccccc2n1Cc1ccc(F)cc1` [Compound 3, N-methyl-N-(1-(4-fluorobenzyl)benzimidazol-2-yl)methyl-N'-methyl-N'-(3,5-bis(trifluoromethyl)benzylaminocarbonyl)-1,3-propylenediamine hydrochloride] here?
**A.** 1400 nM

**Q.** What about the IC50 [2] of the same compound?
**A.** 160 nM

**Q.** How did the IC50 [1] turn out when `CN(CCCN(C)c1nc2ccccc2n1Cc1ccc(F)cc1)C(=O)NCc1ccccc1Cl` [Compound 6] was run?
**A.** 2700 nM

**Q.** And the IC50 [2]?
**A.** 25 nM

**Q.** For `COc1cc(CNC(=O)N(C)CCCN(C)c2nc3ccccc3n2Cc2ccc(F)cc2)cc(OC)c1` [Compound 8], which IC50 [1] is on record?
**A.** 3000 nM

**Q.** What about the IC50 [2] of the same compound?
**A.** 280 nM

**Q.** `COc1cccc(CNC(=O)N(C)CCCN(C)c2nc3ccccc3n2Cc2ccc(F)cc2)c1` [Compound 10] was tested. Which IC50 [1] did it give?
**A.** 2800 nM

**Q.** And the IC50 [2]?
**A.** 41 nM

— US6114369A, “Benzimidazole compound” (Nissan Chemical Industries, Ltd., priority 1997, dated 2000)
